Laboratory results from patent publication US12195434B2, “Process for the preparation of a chiral prostaglandin enol intermediate and intermediate compounds useful in the process” (EUROAPI HUNGARY LIMITED LIABILITY COMPANY, priority 2019, dated 2025).

Assay: solubility of the PPB-enone isomers in crystallization solvents
Type: physicochemical
Method: The solubility (g/100 ml) of the PPB-enone isomers in some of the solvents with which crystallization was attempted is shown below: […]

Row | Compound | solubility (DIPE, 23° C.) | solubility (DIPE, Reflux) | solubility (EtOH, 23° C.) | solubility (EtOH, Reflux) [g/100 ml] | solubility (MeOH, 23° C.) | solubility (MeOH, Reflux) [g/100 ml] | solubility (TBME, 23° C.) | solubility (TBME, Reflux) [g/100 ml] | solubility (iPrOH, 23° C.) | solubility (iPrOH, Reflux) [g/100 ml]
1 | Cc1cccc([C@H](C)C(=O)/C=C/[C@@H]2[C@H]3CC(=O)O[C@H]3C[C@H]2OC(=O)c2ccc(-c3ccccc3)cc2)c1 [16-(S)-PPB-enone, [(3aR,4R,5R,6aS)-4-[(E,4S)-4-(m-tolyl)-3-oxo-pent-1-enyl]-2-oxo-3,3a,4,5,6,6a-hexahydrocyclopenta[b]furan-5-yl] 4-phenylbenzoate] | insoluble | 0.2 g/100 ml | insoluble | 0.33 | insoluble | 0.33 | insoluble | 0.13 | insoluble | 0.29
2 | Cc1cccc([C@@H](C)C(=O)/C=C/[C@@H]2[C@H]3CC(=O)O[C@H]3C[C@H]2OC(=O)c2ccc(-c3ccccc3)cc2)c1 [16-(R)-PPB-enone, [(3aR,4R,5R,6aS)-4-[(E,4R)-4-(m-tolyl)-3-oxo-pent-1-enyl]-2-oxo-3,3a,4,5,6,6a-hexahydrocyclopenta[b]furan-5-yl] 4-phenylbenzoate] | in- | in- | 0.43 g/100 ml | 4.00 | 0.45 g/100 ml | 5.00 | 0.71 g/100 ml | 8.00 | 0.18 g/100 ml | 2.22
3 | Cc1cccc(C(C)C(=O)/C=C/[C@@H]2[C@H]3CC(=O)O[C@H]3C[C@H]2OC(=O)c2ccc(-c3ccccc3)cc2)c1 (stereo partly drawn) [16-(R,S)-PPB-enone, [(3aR,4R,5R,6aS)-4-[(E)-4-(m-tolyl)-3-oxo-pent-1-enyl]-2-oxo-3,3a,4,5,6,6a-hexahydrocyclopenta[b]furan-5-yl] 4-phenylbenzoate] | insoluble | in- | insoluble | 0.77 | insoluble | 0.91 | 0.14 g/100 ml | 0.33 | insoluble | 0.80
